One series has as its system HepG2. Nature of the series: Cytotoxicity against human HepG2 cells assessed as reduction in cell viability measured after 24 hrs by WST1 assay. The series is classed as functional. As to conditions: HepG2, 24 h, read-out: LC50 (the source's name).
The subject of series [1] is Staphylococcus aureus. Nature of the series: Antibacterial activity against methicillin-resistant Staphylococcus aureus MW2 BAA 1707 assessed as growth inhibition by standard microdilution method. The series is classed as functional. Background: Broth dilution looks for growth in wells or tubes with falling amounts of substance.
Series [2] can be described thus: Hemolytic activity against human erythrocytes measured after 1 hr. The series is classed as ADME, cell-based, Erythrocyte.
The subject of the next series is HeLa. Nature of the series: Cytotoxicity against human HeLa cells assessed as reduction in cell viability measured after 24 hrs by WST1 assay. The class given is functional. To be noted: read-out: LC50 (the source's name). (Tetrazolium dyes change colour on reduction, which living cells bring about.)
The test system of series [3] is Staphylococcus aureus. Nature of the series: Antibacterial activity against vancomycin-resistant Staphylococcus aureus VRS1 assessed as growth inhibition by standard microdilution method. The class given is functional.
The test system of series [4] is Staphylococcus aureus. Nature of the series: Antibacterial activity against methicillin-resistant Staphylococcus aureus MW2 assessed as growth inhibition. The class given is functional.
Series [5] deals with Staphylococcus aureus. Nature of the series: Antibacterial activity against methicillin-resistant Staphylococcus aureus ATCC 33591 assessed as growth inhibition by standard microdilution method. The class given is functional.
Series [6] has as its system Staphylococcus aureus. Nature of the series: Antibacterial activity against methicillin-resistant Staphylococcus aureus JE2 assessed as growth inhibition by standard microdilution method. The class given is functional.
The test system of series [7] is Staphylococcus aureus. Nature of the series: Antibiofilm activity against methicillin-resistant Staphylococcus aureus MW2 assessed as reduction in number of viable cells by measuring colony forming units at 16 fold MIC relative to control. The class given is functional.

The values that follow come from ChEMBL document CHEMBL4342495, “Structure-Activity Relationship and Anticancer Profile of Second-Generation Anti-MRSA Synthetic Retinoids” (ACS Med Chem Lett, 2020).

Structures are written as SMILES. ≈ marks a conversion by molar mass, not a printed value. A value given as a limit tells only on which side of the number the result lay.

For the compound `CCCC=Cc1cc(-c2ccc3cc(CO)ccc3c2)ccc1O`, the CC50 with HepG2 was determined as 3.89 mg/L. Also, the MIC in the series on Staphylococcus aureus [1] was found to be 4 mg/L. In addition, in series [2], the HC50 at 1 h is > 64 µg/mL.
`CCCCCCCc1cc(-c2ccc3cc(C(=O)O)ccc3c2)ccc1O`: the CC50 with HeLa is 0.6 mg/L (≈ 1.66 µM); in the series with HepG2 it was 1.89 mg/L. The MIC in the series with Staphylococcus aureus [1] came to 4 mg/L. The HC50 at 1 h in [2] was > 64 µg/mL.
With `CC(C)(C)c1cc(-c2ccc3cc(CO)ccc3c2)ccc1O`, in the series on HepG2, the CC50 came to 7.5 mg/L. Besides, in the series with Staphylococcus aureus [1], the MIC was determined as 8 mg/L. The HC50 at 1 h in series [2] was > 64 µg/mL.
On to `CCCCCCCCCc1cc(-c2ccc3cc(CO)ccc3c2)ccc1O`, for which the CC50 with HepG2 came out at 7.25 mg/L. Besides, the MIC in the series with Staphylococcus aureus [1] is > 64 mg/L. The HC50 at 1 h in series [2] is > 64 µg/mL.
Taken in the same sequence, the figures for `CCCCCCCCCc1cc(-c2ccc3cc(C(=O)O)ccc3c2)ccc1O` were 1.73 mg/L, 4 mg/L and 22.8 µg/mL.
As to `OCc1ccc2cc(-c3ccc(O)cc3)ccc2c1`, in the series with HepG2, the CC50 amounted to 1.7 µM. In addition, the MIC with Staphylococcus aureus [1] is > 64 mg/L. For the same compound, the HC50 at 1 h in [2] was > 64 µg/mL.
Take `CN[C@H](CC(C)C)C(=O)N[C@H]1C(=O)N[C@@H](CC(N)=O)C(=O)N[C@H]2C(=O)N[C@H]3C(=O)N[C@H](C(=O)N[C@H](C(=O)O)c4cc(O)cc(O)c4-c4cc3ccc4O)[C@H](O)c3ccc(c(Cl)c3)Oc3cc2cc(c3O[C@@H]2O[C@H](CO)[C@@H](O)[C@H](O)[C@H]2O[C@H]2C[C@](C)(N)[C@H](O)[C@H](C)O2)Oc2ccc(cc2Cl)[C@H]1O` [VANCOMYCIN]: the MIC in the series with Staphylococcus aureus [3] was > 64 mg/L.
Consider `Cc1cc(-c2ccc3cc(CO)ccc3c2)ccc1O`, for which, in the series with HepG2, the CC50 is > 32 mg/L. Further, the MIC with Staphylococcus aureus [1] was > 64 mg/L. Besides, the 50% haemolytic concentration (HC50) at 1 h in series [2] was > 64 µg/mL.
As to `CC12CC3CC(C)(C1)CC(c1cc(-c4ccc5cc(CO)ccc5c4)ccc1O)(C3)C2`, the CC50 in the series with HepG2 stood at 11.7 mg/L. In addition, the MIC in the series with Staphylococcus aureus [1] came to 8 mg/L. Also, in series [2], the 50% haemolytic concentration (HC50) at 1 h is > 64 µg/mL.
On the same counts, the results for `CCCCCc1cc(-c2ccc3cc(C(=O)O)ccc3c2)ccc1O` are 3.26 mg/L, 8 mg/L and > 64 µg/mL.
As to `CCCC=Cc1cc(-c2ccc3cc(C(=O)O)ccc3c2)ccc1O`, the CC50 in the series on HepG2 came to 5.38 mg/L. The MIC in the series with Staphylococcus aureus [1] was 16 mg/L. Further, the HC50 at 1 h in series [2] was > 64 µg/mL.
Taken in the same sequence, the figures for `CCCCCCCc1cc(-c2ccc3cc(CO)ccc3c2)ccc1O` were 3.61 mg/L, 4 mg/L and > 64 µg/mL.
On the same counts, the results for `Cc1cc(-c2ccc3cc(C(=O)O)ccc3c2)ccc1O` are > 32 mg/L, > 64 mg/L and > 64 µg/mL.
Taken in the same sequence, the figures for `CCCCCCCC=Cc1cc(-c2ccc3cc(CO)ccc3c2)ccc1O` were 5.51 mg/L, > 64 mg/L and > 64 µg/mL.
Consider `CC(C)(C)c1cc(-c2ccc3cc(C(=O)O)ccc3c2)ccc1O`, for which, in the series on HepG2, the CC50 worked out at 9.8 mg/L. The MIC in the series with Staphylococcus aureus [1] was 16 mg/L. In series [2], the HC50 at 1 h is > 64 µg/mL.
Taken in the same sequence, the figures for `CCCCCC=Cc1cc(-c2ccc3cc(C(=O)O)ccc3c2)ccc1O` were 2.44 mg/L, 8 mg/L and 45.4 µg/mL.
Consider `CCCCCCCC=Cc1cc(-c2ccc3cc(C(=O)O)ccc3c2)ccc1O`, for which the CC50 with HepG2 stood at 2.6 mg/L. In addition, in the series on Staphylococcus aureus [1], the MIC came to 4 mg/L. Also, in series [2], the HC50 at 1 h was 51.5 µg/mL.
Taken in the same sequence, the figures for `CCCCCc1cc(-c2ccc3cc(CO)ccc3c2)ccc1O` were 3.27 mg/L, 4 mg/L and > 64 µg/mL.
Taken in the same sequence, the figures for `O=C(O)c1ccc2cc(-c3ccc(O)cc3)ccc2c1` were > 32 mg/L, > 64 mg/L and > 64 µg/mL.
On to `O=C(O)c1ccc2cc(-c3ccc(O)c(C45CC6CC(CC(C6)C4)C5)c3)ccc2c1` [O-DEMETHYLATED ADAPALENE], for which the minimal inhibitory concentration (MIC) in the series on Staphylococcus aureus [3] is 1 mg/L; in the series with Staphylococcus aureus [4] it was 2 mg/L (≈ 5.02 µM); in the series with Staphylococcus aureus [5], 1 mg/L; in the series with Staphylococcus aureus [6] it was 1 mg/L; in the series on Staphylococcus aureus [1], 1 mg/L. Moreover, the CC50 was found to be 0.21 mg/L (≈ 0.527 µM) in the series with HeLa and 1.02 mg/L in the series on HepG2. Further, in [2], the HC50 at 1 h is > 64 µg/mL. The “inhibition (INH)” value with Staphylococcus aureus [7] came to 90%.
Regarding `CCCCCC=Cc1cc(-c2ccc3cc(CO)ccc3c2)ccc1O`, the CC50 with HepG2 came out at 4.19 mg/L. Moreover, in the series on Staphylococcus aureus [1], the MIC stood at 4 mg/L. Besides, the HC50 at 1 h in [2] is > 64 µg/mL.
Regarding `CC12CC3CC(C)(C1)CC(c1cc(-c4ccc5cc(C(=O)O)ccc5c4)ccc1O)(C3)C2`, the MIC with Staphylococcus aureus [3], in the series with Staphylococcus aureus [5], in the series on Staphylococcus aureus [6] and with Staphylococcus aureus [1] was 2 mg/L throughout. For the same compound, the results for the CC50 with HeLa and in the series with HepG2 were 0.49 mg/L (≈ 1.15 µM) and 1.84 mg/L, respectively. The compound also displayed an HC50 at 1 h in [2] of 15.2 µg/mL.

In general, MIC refers to the smallest concentration in the dilution series that meets the test's criterion for growth inhibition. A word on the HC50: it is the concentration that lyses half of the red blood cells. Low readings indicate more damage to red cells, high ones less damage to red cells.
